Assay [1] deals with human prostate cancer cell DU145. Nature of the assay: MTT assay, survival rate of tumor cells (antiproliferative activity). Type of assay: cell-based. Conditions: DU-145, 72 h, read-out: Antiproliferative activity against human prostate cancer cell DU145, IC50. The method, then:
DU145 cells (human prostate cancer cells) in logarithmic growth phase were digested with 0.25% trypsin-EDTA to prepare single cell suspension, which was inoculated into 96-well plate overnight according to 1500 cells/well/100 μL, and fresh medium containing different concentrations of compounds to be tested and corresponding solvent control was added, and 100 μL (DMSO final concentration <0.1%) was added to each well, and the 96-well plate was further cultured at 37° C. for 72 h. 20 μL of freshly prepared PBS solution containing 5 mg/mL MTT was added to each well, and the 96-well plate was further cultured for 4 h. After the supernatant was discarded, 180 μL of DMSO was added to each well to dissolve the MTT formazan precipitate. After the 96-well plate was shaked and mixed by a micro oscillator, the optical density (OD) at the detection wavelength of 570 nm was measured. With DMSO-treated tumor cells as the control group, the inhibition rate on the growth of tumor cells of the compound to be tested was calculated from the following formula, and the IC50 was calculated according to the median-effect equation. Inhibition rate (%)=(average OD value of control group-average OD value of dosing group)/average OD value of control group×100%

In a further assay the test system is STAT3 transcription. Nature of the assay: STAT3 specific luciferase double reporter gene experiment in DU145 cells. Conditions: for STAT3 transcription inhibition activity: DU145, STAT3 specific luciferase double reporter; for IC50: Homo sapiens, DU-145, DU145 with high STAT3 expression, 24 h. Type of assay: cell-based, human. The method, then: The luciferase plasmids STAT3-TA-Luc and pGMLR-TK were transiently co-transfected into DU145 cells by Lipofectamine 3000. After staying overnight, different concentrations of compounds to be tested were added and cultured for 24 hours. The supernatant was discarded, and the residue was washed twice with PBS, and then 20 μL of lysis solution was added to shake and lyse for 5 min. The supernatant was transferred to a 96-well Costar whiteplate, and 70 μL of Dual-Glo luciferase substrate solution was added, and the relative fluorescence intensity of firefly luciferase was detected, and then 70 μL of Stop-Glo substrate solution was added, and the relative fluorescence intensity of sea kidney luciferase was detected, the normalized value was obtained, and the inhibition rate and IC50 value were calculated.

In a further assay the test system is p-STAT3 (Tyr705). Nature of the assay: Western blotting of p-STAT3 expression in DU145 cells. Type of assay: cell-based, human. Here is the method: DU145 cells treated for 16 h with different concentrations of examples 12, 23, 33 and 34 and DU145 cells in control group were collected and washed twice with pre-cooled PBS. After appropriate amount of RIPA lysate (50 mM Tris-HCl, 1 mM EDTA, 1% Triton X-100, 150 mM NaCl, 0.1% SDS, 1 mM NaF, Na3VO4, protease inhibitor, pH 7.4) was added to lyse for 1 h on ice, the reaction mixture was centrifuged at 4° C., 12,000 rpm for 20 min, and then the supernatant was collected for protein quantification and boiled for denaturation. Equal amount of protein was taken for 10% SDS-PAGE electrophoresis. The specific antibodies of p-STAT3 (Tyr705) and STAT3 were used as primary antibody, which was incubated overnight at 4° C. The corresponding HRP-labeled secondary antibody was used, incubated at room temperature for 2 h, and washed. ECL chemiluminescence substrate reaction solution was added to develop in gel imaging system, and the image was saved. (3-actin was used as internal reference.

`Cc1ccc(S(=O)(=O)Nc2ccc(C)c(C(=O)NCc3cccnc3)c2)cc1` [Example 11, 2-methyl-5-((4-methylphenyl)sulfonamido)-N-(pyridin-3-ylmethyl)benzamide]: in assay [1], the 50% inhibitory concentration (IC50) came to 2000 ± 30 nM.
On the same count and under the same terms, the result for `Cc1ccc(S(=O)(=O)Nc2cccc(C(=O)NCc3cccnc3)c2)cc1` [Example 2, 3-((4-methylphenyl)sulfonamido)-N-(pyridin-3-ylmethyl)benzamide] reads 700 ± 150 nM; that for `Cc1ccc(C(=O)NCc2cccnc2)cc1NS(=O)(=O)c1ccc(Cl)cc1` [Example 21, 3-((4-chlorophenyl)sulfonamido)-4-methyl-N-(pyridin-3-ylmethyl)benzamide], 930 ± 50 nM; that for `COc1ccc(S(=O)(=O)Nc2cc(C(=O)NCc3cccnc3)ccc2C)cn1` [Example 32, 3-((6-methoxypyridine)-3-sulfonamido)-4-methyl-N-(pyridin-3-ylmethyl)benzamide], 400 ± 20 nM.
For the compound `Cc1ccc(C(=O)NCc2cccnc2)cc1NS(=O)(=O)c1ccc(F)cc1` [Example 20, 3-((4-fluorophenyl)sulfonamido)-4-methyl-N-(pyridin-3-ylmethyl)benzamide], in the assay with STAT3 transcription, the “STAT3 transcription inhibition activity” value is “obvious STAT3 transcription inhibition activity” and the half-maximal inhibitory concentration (IC50) is 15000 ± 1400 nM. Further, the IC50 in assay [1] came out at 3470 ± 1220 nM.
As to `Cc1ccc(S(=O)(=O)Nc2cc(C(=O)NCc3cccnc3)ccc2F)cc1` [Example 3, 4-fluoro-3-((4-methylphenyl)sulfonamido)-N-(pyridin-3-ylmethyl) benzamide], the IC50 in assay [1] was 790 ± 130 nM.
On the same count and under the same terms, the result for `Cc1ccc(C(=O)NCc2cccnc2)cc1NS(=O)(=O)c1ccc2c(c1)OCCO2` [Example 28, 3-((2,3-dihydrobenzo[b][1,4]dioxine)-6-sulfonamido)-4-methyl-N-(pyridin-3-ylmethyl)benzamide] reads 420 ± 10 nM.
As to `Cc1ccc(S(=O)(=O)Nc2cc(F)cc(C(=O)NCc3cccnc3)c2)cc1` [Example 9, 3-fluoro-5-((4-methylphenyl)sulfonamido)-N-(pyridin-3-ylmethyl)benzamide], in the assay with STAT3 transcription, the “STAT3 transcription inhibition activity” value was “obvious STAT3 transcription inhibition activity” and the IC50 was determined as 6200 ± 300 nM. For the same compound, the half-inhibitory concentration (IC50) in assay [1] was 900 ± 20 nM.
Turning to `Cc1ccc(C(=O)NCc2cccnc2)cc1NS(=O)(=O)c1ccc2ccccc2c1` [Example 29, 4-methyl-3-(naphthalene-2-sulfonamido)-N-(pyridin-3-ylmethyl)benzamide], the IC50 in assay [1] was 1000 ± 70 nM.
Still for that read-out and setting: the result for `Cc1ccc(S(=O)(=O)Nc2cc(C(=O)NCc3cccnc3)ccc2Cl)cc1` [Example 4, 4-chloro-3-((4-methylphenyl)sulfonamido)-N-(pyridin-3-ylmethyl) benzamide] reads 800 ± 120 nM; that for `Cc1ccc(C(=O)NCc2cccnc2)cc1NS(=O)(=O)c1ccc2c(c1)OCO2` [Example 26, 3-(benzo[d][1,3]dioxole-5-sulfonamido)-4-methyl-N-(pyridin-3-ylmethyl)benzamide], 610 ± 140 nM.
As to `Cc1ccc(C(=O)NCc2cccnc2)cc1NS(=O)(=O)c1ccc(C(C)C)cc1` [Example 22, 3-((4-isopropylphenyl)sulfonamido)-4-methyl-N-(pyridin-3-ylmethyl)benzamide], the half-maximal inhibitory concentration (IC50) in assay [1] turned out to be 1000 ± 160 nM.
The same measure, in the same setting: the result for `Cc1ccc(C(=O)NCc2cccnc2)cc1NS(=O)(=O)c1ccc2c(c1)CCO2` [Example 27, 3-((2,3-dihydrobenzofuran)-5-sulfonamido)-4-methyl-N-(pyridin-3-ylmethyl)benzamide] reads 1200 ± 10 nM; that for `COc1cccc(S(=O)(=O)Nc2cc(C(=O)NCc3cccnc3)ccc2C)c1` [Example 14, 3-((3-methoxyphenyl)sulfonamido)-4-methyl-N-(pyridin-3-ylmethyl)benzamide], 2500 ± 20 nM.
On to `Cc1ccc(S(=O)(=O)Nc2cc(C(=O)NCc3cccnc3)ccc2C)c(C)c1` [Example 17, 3-((2,4-dimethylphenyl)sulfonamido)-4-methyl-N-(pyridinylmethyl)benzamide], for which the concentration for half-maximal inhibition (IC50) is 8200 ± 20 nM with STAT3 transcription and 500 ± 40 nM in assay [1].
As to `Cc1ccc(S(=O)(=O)Nc2cc(C(=O)NCc3cccnc3)ccc2C)s1` [Example 30, 4-methyl-3-((5-methylthiophene)-2-sulfonamido)-N-(pyridin-3-ylmethyl)benzamide], in the assay on STAT3 transcription, the “STAT3 transcription inhibition activity” value is reported as “obvious STAT3 transcription inhibition activity” and the IC50 worked out at 17500 ± 300 nM. In addition, the IC50 in assay [1] is 1200 ± 30 nM.
As for `CCOc1ccc(S(=O)(=O)Nc2cc(C(=O)NCc3cccnc3)ccc2C)cc1` [Example 15, 3-((4-ethoxyphenyl)sulfonamido)-4-methyl-N-(pyridin-3-ylmethyl)benzamide], the 50% inhibitory concentration (IC50) in assay [1] was determined as 860 ± 60 nM.
With `Cc1ccc(C(=O)NCc2cccnc2)cc1NS(=O)(=O)c1ccc(C2CC2)cc1` [Example 23, 3-((4-cyclopropylphenyl)sulfonamido)-4-methyl-N-(pyridin-3-ylmethyl)benzamide], in the assay on p-STAT3 (Tyr705) (DU145, 0.5 μM concentration), the “inhibitory activity on STAT3 phosphorylation” value was “obvious inhibitory activity”. In the assay on STAT3 transcription, the “STAT3 transcription inhibition activity” value was “obvious STAT3 transcription inhibition activity” and half-maximal inhibition (IC50) was put at 1000 nM. Further, in assay [1], the half-inhibitory concentration (IC50) is 50 ± 8 nM.
With `Cc1ccc(S(=O)(=O)Nc2cc(C)cc(C(=O)NCc3cccnc3)c2)cc1` [Example 7, 3-methyl-5-((4-methylphenyl)sulfonamido)-N-(pyridin-3-ylmethyl)benzamide], the IC50 in assay [1] turned out to be 340 ± 10 nM.
With `Cc1ccc(S(=O)(=O)Nc2cc(C(=O)NCc3ccc(C(F)(F)F)nc3)ccc2C)cc1` [Example 35, 4-methyl-3-((4-methylphenyl)sulfonamido)-N-((6-(trifluoromethyl)pyridin-3-yl)methyl)benzamide], in the assay with STAT3 transcription, the “STAT3 transcription inhibition activity” value is reported as “obvious STAT3 transcription inhibition activity” and the half-inhibitory concentration (IC50) came to 8000 nM. For the same compound, the 50% inhibitory concentration (IC50) in assay [1] is 200 ± 70 nM.
As to `COc1ccc(CNC(=O)c2ccc(C)c(NS(=O)(=O)c3ccc(C)cc3)c2)cn1` [Example 34, N-((6-methoxypyridin-3-yl)methyl)-4-methyl-3-((4-methylphenyl)sulfonamido)benzamide], in the assay on p-STAT3 (Tyr705) (DU145, 0.1 μM concentration), the “inhibitory activity on STAT3 phosphorylation” value is reported as “obvious inhibitory activity”. For the same compound, in the assay with STAT3 transcription, the “STAT3 transcription inhibition activity” value was “obvious STAT3 transcription inhibition activity” and the 50% inhibitory concentration (IC50) came out at 800 ± 270 nM. In assay [1], the half-inhibitory concentration (IC50) was found to be 6 ± 2 nM.
Regarding `COc1ccc(S(=O)(=O)Nc2cc(C(=O)NCc3cccnc3)ccc2C)cc1` [Example 13, 3-((4-methoxyphenyl)sulfonamido)-4-methyl-N-(pyridin-3-ylmethyl)benzamide], the “STAT3 transcription inhibition activity” value in the assay on STAT3 transcription is “obvious STAT3 transcription inhibition activity”. Besides, the half-maximal inhibitory concentration (IC50) in the assay with STAT3 transcription came out at 10000 ± 2100 nM; in assay [1], 180 ± 80 nM.
For `Cc1ccc(C(=O)NCc2cccnc2)cc1NS(=O)(=O)c1ccc2c(c1)CCC2` [Example 25, 3-((2,3-dihydro-1H-indene)-5-sulfonamido)-4-methyl-N-(pyridinylmethyl)benzamide], the IC50 in assay [1] is 900 ± 40 nM.
`CCc1ccc(C(=O)NCc2cccnc2)cc1NS(=O)(=O)c1ccc(C)cc1` [Example 6, 4-ethyl-3-((4-methylphenyl)sulfonamido)-N-(pyridin-3-ylmethyl)benzamide]: the “STAT3 transcription inhibition activity” value in the assay on STAT3 transcription is “obvious STAT3 transcription inhibition activity”. Further, the IC50 worked out at 9700 ± 1300 nM in the assay on STAT3 transcription and 860 ± 80 nM in assay [1].
Turning to `Cc1ccc(S(=O)(=O)Nc2cc(C(=O)NCc3cccnc3)ccc2C)cc1C` [Example 16, 3-((3,4-dimethylphenyl)sulfonamido)-4-methyl-N-(pyridin-3-ylmethyl)benzamide], the concentration for half-maximal inhibition (IC50) in assay [1] turned out to be 970 ± 30 nM.
Same read-out and setting: the result for `Cc1ccc(S(=O)(=O)Nc2cc(Cl)cc(C(=O)NCc3cccnc3)c2)cc1` [Example 10, 3-chloro-5-((4-methylphenyl)sulfonamido)-N-(pyridin-3-ylmethyl)benzamide] reads 340 ± 10 nM.

The values are drawn from patent US12391647B2, “Benzamide compound and preparation method, use, and pharmaceutical composition thereof” (INSTITUTE OF MATERIA MEDICA, CHINESE ACADEMY OF MEDICAL …, priority 2018, dated 2025).
